Patent US20200131669A1, “CYCLIC PEPTIDE COMPOUND HAVING HIGH MEMBRANE PERMEABILITY, AND LIBRARY CONTAINING SAME” (Chugai Seiyaku Kabushiki Kaisha, priority 2017, published 2020)
Starred links: 1 amine or outer side, 2 acyl side, 3 side chain; linkers in the order of their positions; H or OH if unused. Positions of bridges follow the written chain, without caps; N, C: chain ends. Non-standard residues stand in square brackets, D forms with d. Residues, ends and D or L forms follow the SMILES beside them. *: point of attachment. X1 = CC(CC(=O)[*:2])C(=O)[C@@H](N[*:1])[C@@H](C)O; NMePhe(3-Cl) = CN[C@@H](Cc1cccc(Cl)c1)C(=O)O; Ethyl(2-morpholino) = C1CN(CC*)CCO1; NMeF = CN[C@@H](Cc1ccccc1)C(=O)O; NMeGABA = CN(CCCC(=O)[*:2])[*:1]; NMeI = CC[C@H](C)[C@H](NC)C(=O)O; NMeD = CN[C@@H](CC(=O)O)C(=O)O; NMeL = CN[C@@H](CC(C)C)C(=O)O; dNMeL = CN[C@H](CC(C)C)C(=O)O; Propyl(2R-OH) = C[C@@H](O)C*; dNMeAbu = CC[C@@H](NC)C(=O)O; NMeV = CN[C@H](C(=O)O)C(C)C; NMeAbu = CC[C@H](NC)C(=O)O; NMeA = CN[C@@H](C)C(=O)O; Piperidide = C1CCN(*)CC1; dNMeA = CN[C@H](C)C(=O)O; NBuGly = CCCCNCC(=O)O; Ethyl(2-OH) = OCC*; Sar = CNCC(=O)O; tBu = CC(C)(C)*

Legend:
Caco-2 cells [1] = conditions: Ozeki et al. 2015, cited from earlier work; for decrease in the concentration on the Apical side: 120 minutes of incubation
Caco-2 cells [2] = assay: Caco-2 membrane permeability, improved method as used in the following Examples (96-well, 20 to 24 h preincubation); assay type: in vitro ADME
Summary of the method: (§1)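 Papp (cm/sec) was derived from LC/MS of basal samples collected 180 min after apical dosing in FaSSIF/HBSS pH 6.0 with 1% DMSO, against a basal HBSS pH 7.4 receiver containing 4% BSA. Three-week Caco-2 cultures were first preincubated with compound in DMEM+FaSSIF at 37 °C for 20–24 h.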

[3] = as above; assay type: in vitro ADME; conditions: human, Caco-2, Caco-2 (cm/sec)
Summary of the method: as §1

In the case of `COCCc1ccc(OCC(O)CNC(C)C)cc1` (stereo not drawn) [metoprolol], the “decrease in the concentration on the Apical side” value (Caco-2 cells [1]) is listed as “approximately 20%”.
For `CC(C)C[C@H]1C(=O)N[C@@H]([C@@H](C)O)C(=O)C(C)CC(=O)N(C)[C@@H](C(C)C)C(=O)N[C@@H](Cc2ccccc2)C(=O)N(C)[C@@H](Cc2cccc(Cl)c2)C(=O)N(C)[C@@H](CC(C)C)C(=O)N(C)[C@H](C(=O)N2CCCCC2)CC(=O)N2CCC[C@H]2C(=O)N[C@@H](Cc2ccccc2)C(=O)N[C@@H](COC(C)(C)C)C(=O)N1C` (stereo partly drawn) [pd162] (PFS(tBu)[NMeL][X1][NMeV]F[NMePhe(3-Cl)][NMeL][NMeD]-Piperidide; lactam N-10), the “Caco-2” value (Caco-2 cells [2]; Caco-2) was 1.2e-06 cm/s and the Papp A→B at 180 min [3] was 1.2 ×10⁻⁶ cm/s.
With `CC(C)C[C@H]1C(=O)N[C@@H]([C@@H](C)O)C(=O)N(C)CC(=O)N(C)[C@@H](C(C)C)C(=O)N[C@@H](Cc2ccccc2)C(=O)N(C)[C@@H](Cc2cccc(Cl)c2)C(=O)N(C)[C@@H](CC(C)C)C(=O)N(C)[C@H](C(=O)N2CCCCC2)CC(=O)N2CCC[C@@H]2C(=O)N[C@@H](Cc2ccccc2)C(=O)N[C@@H](COC(C)(C)C)C(=O)N1C` [pd163] ([dP]FS(tBu)[NMeL]T[Sar][NMeV]F[NMePhe(3-Cl)][NMeL][NMeD]-Piperidide; lactam N-11) the “Caco-2” value (Caco-2 cells [2]; Caco-2) was 1.7e-06 cm/s and the Papp A→B at 180 min [3] was 1.7 ×10⁻⁶ cm/s.
For `CC(C)C[C@H]1C(=O)N[C@@H]([C@@H](C)O)C(=O)N(C)CC(=O)N(C)[C@@H](C(C)C)C(=O)N[C@@H](Cc2ccccc2)C(=O)N(C)[C@@H](Cc2cccc(Cl)c2)C(=O)N(C)[C@@H](CC(C)C)C(=O)N(C)[C@H](C(=O)N2CCCCC2)CC(=O)N(C)[C@H](C)C(=O)N[C@@H](Cc2ccccc2)C(=O)N[C@@H](COC(C)(C)C)C(=O)N1C` [pd167] ([dNMeA]FS(tBu)[NMeL]T[Sar][NMeV]F[NMePhe(3-Cl)][NMeL][NMeD]-Piperidide; lactam N-11), the “Caco-2” value (Caco-2 cells [2]; Caco-2) was 1.7e-06 cm/s and the Papp A→B at 180 min [3] was 1.7 ×10⁻⁶ cm/s.
For `CCCCN1CC(=O)N(C)[C@@H](CC(C)C)C(=O)N[C@H](C(=O)N2CCCCC2)CC(=O)N(C)[C@@H](CC)C(=O)N[C@H](CC(C)C)C(=O)N(C)[C@@H](CC(C)C)C(=O)N(C)[C@@H](Cc2ccccc2)C(=O)N[C@@H](COCCN2CCOCC2)C(=O)N(C)[C@H](CC)C(=O)N(C)[C@@H](CC(C)C)C(=O)N[C@@H]([C@@H](C)O)C1=O` [pd482] ([NMeAbu][dL][NMeL][NMeF]S(Ethyl(2-morpholino))[dNMeAbu][NMeL]T[NBuGly][NMeL]D-Piperidide; lactam N-11), the Caco-2 (Caco-2 cells [2]; human, Caco-2, 180 min) was 1.1e-06 cm/s.
Molecule `CCCCN1CC(=O)N(C)[C@@H](Cc2ccccc2)C(=O)N(C)[C@@H](CC(C)C)C(=O)N[C@@H](CC(C)C)C(=O)N(C)[C@@H](CC(C)C)C(=O)N[C@H](C(=O)N2CCCCC2)CC(=O)N(C)CC(=O)N(C)[C@@H](CC)C(=O)N[C@@H](C(C)C)C(=O)N(C)[C@@H](CC(C)C)C(=O)N[C@@H](COCCN2CCOCC2)C1=O` [pd486] ([Sar][NMeAbu]V[NMeL]S(Ethyl(2-morpholino))[NBuGly][NMeF][NMeL]L[NMeL]D-Piperidide; lactam N-11) has a Caco-2 (Caco-2 cells [2]; human, Caco-2, 180 min) of 1.1e-06 cm/s.
Work on `CCCCN1CC(=O)N(C)[C@@H](CC(C)C)C(=O)N[C@H](C(=O)N2CCCCC2)CC(=O)N(C)[C@@H](C)C(=O)N[C@@H](COC[C@@H](C)O)C(=O)N(C)[C@H](CC(C)C)C(=O)N(C)[C@@H](Cc2cccc(Cl)c2)C(=O)N[C@@H](CC(C)C)C(=O)N(C)[C@@H](Cc2ccccc2)C(=O)N(C)[C@@H]([C@@H](C)CC)C(=O)N[C@@H]([C@@H](C)O)C1=O` [pd489] ([NMeA]S(Propyl(2R-OH))[dNMeL][NMePhe(3-Cl)]L[NMeF][NMeI]T[NBuGly][NMeL]D-Piperidide; lactam N-11) yielded a Caco-2 (Caco-2 cells [2]; human, Caco-2, 180 min) of 1.1e-06 cm/s.
For `CC[C@H](C)[C@H]1C(=O)N[C@@H]([C@@H](C)O)C(=O)N(C)CC(=O)N(C)[C@@H](CC(C)C)C(=O)N[C@H](C(=O)N2CCCCC2)CC(=O)N(C)[C@@H](C(C)C)C(=O)N[C@@H](COC[C@@H](C)O)C(=O)N(C)[C@H](CC(C)C)C(=O)N(C)[C@@H](Cc2cccc(Cl)c2)C(=O)N[C@@H](CC(C)C)C(=O)N(C)[C@@H](Cc2ccccc2)C(=O)N1C` [pd491] ([NMeV]S(Propyl(2R-OH))[dNMeL][NMePhe(3-Cl)]L[NMeF][NMeI]T[Sar][NMeL]D-Piperidide; lactam N-11), the Caco-2 (Caco-2 cells [2]; human, Caco-2, 180 min) was 1.1e-06 cm/s.
Work on `CC(C)C[C@H]1C(=O)N[C@@H](C(C)C)C(=O)N(C)[C@@H](Cc2ccccc2)C(=O)N(C)[C@@H](Cc2ccccc2)C(=O)N[C@@H](COC(C)(C)C)C(=O)N(C)[C@@H](CC(C)C)C(=O)N[C@@H](COCCO)C(=O)N(C)[C@@H](CC(C)C)C(=O)N(C)[C@@H](CC(C)C)C(=O)N[C@H](C(=O)N2CCCCC2)CC(=O)N(C)CCCC(=O)N1C` [pd498] ([NMeGABA][NMeL]V[NMeF][NMeF]S(tBu)[NMeL]S(Ethyl(2-OH))[NMeL][NMeL]D-Piperidide; lactam N-11) yielded a Caco-2 (Caco-2 cells [2]; human, Caco-2, 180 min) of 1.1e-06 cm/s.
`CCCCN1CC(=O)N(C)[C@@H](Cc2ccccc2)C(=O)N(C)[C@@H](CC(C)C)C(=O)N[C@@H](COC(C)(C)C)C(=O)N(C)[C@@H](CC(C)C)C(=O)N[C@H](C(=O)N2CCCCC2)CC(=O)N(C)CC(=O)N(C)[C@@H](Cc2ccccc2)C(=O)N[C@@H](C(C)C)C(=O)N(C)[C@@H](CC(C)C)C(=O)N[C@@H](COCCO)C1=O` [pd501] ([Sar][NMeF]V[NMeL]S(Ethyl(2-OH))[NBuGly][NMeF][NMeL]S(tBu)[NMeL]D-Piperidide; lactam N-11) showed a Caco-2 (Caco-2 cells [2]; human, Caco-2, 180 min) of 1.1e-06 cm/s.
For `CC(C)NCC(O)COc1cccc2ccccc12` (stereo not drawn) [propranolol], the “decrease in the concentration on the Apical side” value (Caco-2 cells [1]) is given as “approximately 40%” and the “added drug distributed in the cells after completion of incubation” value (Caco-2 cells [1]) is given as “approximately 8%”.
